Data published in US8629239B2, “Methylocystis strain SB2 materials and methods” (Iowa State University Research Foundation, Inc., priority 2010, dated 2014).

Experiments:
Methylocystis strain SB2 [1] = assay: Degradation of chlorinated hydrocarbons by Methylocystis strain SB2 grown on ethanol or methane; assay type: cell-based; conditions: individual chlorinated hydrocarbons
Procedure: The ability of Methylocystis strain SB2 to degrade chlorinated hydrocarbon, including trichloroethylene (TCE), trans-dichloroethylene (t-DCE), vinyl chloride (VC), 1,1,1-trichloroethane (1,1,1-TCA), dichloromethane (DCM), and chloroform (CF), was compared when Methylocystis strain SB2 was grown on ethanol relative to when it was grown with methane.

[2] = dimensionless, at 30° C.; cited from earlier work
Methylocystis strain H2s = conditions: growth on acetate; Belova et al., 2010; cited from earlier work
Methylocystis heyeri H2T = conditions: growth on acetate; Belova et al., 2010; cited from earlier work
Methylocapsa aurea KYGT = conditions: growth on acetate; cited from earlier work
Methylocystis strain SB2 [3] = assay: Growth of Methylocystis strain SB2 on carbon sources; assay type: cell-based; conditions: for OD600 reached (final / max OD600) / growth rate: NMS medium, 10 μM copper, 30° C.; for growth on substrate as carbon source: substrates 0.05%, methanol 0.01-1% (v/v), acetate 0.01-0.5% (w/v), ethanol 0.05-1% (v/v); for growth rate: exponential kinetics
Procedure: Methylocystis strain SB2 was incubated in 50 ml of NMS medium in 250 ml flask supplemented with 10 μM of copper as CuCl2. The flasks were incubated at 30° C. with shaking at 250 rpm. Cell growth was monitored by measuring OD600 using a Spectronic-20 (Milton Roy Company, USA).
Growth of strain SB2 on Alternative Carbon Sources: Growth on methanol (0.05% v/v) and methylamine, glucose, fructose, sucrose, galactose, xylose, arabinose, and maltose (all at a concentration of 0.05% w/v) was tested, as were the organic acids formate, pyruvate, succinate, malate, citrate and oxalate (all added as sodium salts at a concentration of 0.05% w/v).
At this pH, 99% of the added acetate exists as the dissociated form. It is believed that undissociated acetate is transferred across the cell membrane, thus the proton motive force is dissipated to transport acetate into the cell (Axe and Bailey, 1995), which inhibits microbial growth.

[4] = tested on: Methylocystis echinoides IMET 10491T; conditions: growth on acetate; Belova et al., 2010; cited from earlier work
[5] = tested on: Methylocella silvestris BL2; conditions: Dedysh, et al. (2005); cited from earlier work
Methylocystis strain SB2 [6] = assay: Growth yield and carbon conversion efficiency, Methylocystis strain SB2; assay type: cell-based; conditions: NMS, 10 μM copper, standard error in parentheses
Procedure: For Table 1, the molar growth yield (g dry cell▪(mol substrate^−1)) and the efficiency of carbon conversion to cell material (g cell carbon▪(g substrate carbon)^−1) were determined in triplicate 5 ml of NMS medium supplemented with 10 μM of copper as CuCl2 using specially constructed 32.5 ml vials containing a CH4/air mixture (1:2 ratio in the headspace), or 0.10% (w/v) of sodium acetate as a sole carbon source. CH4 and acetate concentrations were measured using gas chromatography equipped with a FID (HP 5890 Series II) and ion chromatography (Dionex DX100, Sunnyvale, Calif.), respectively. Cell growth was monitored by measuring OD600 using a Spectronic-20 spectrometer (Milton Roy Company, USA). Turbidity was correlated to protein concentration using the Bio-Rad Protein Assay (Bio-Rad Laboratories, Richmond, Calif.) with bovine serum albumin (BSA) as the standard following manufacturer's instructions. To estimate the carbon content of biomass it was assumed that dry biomass was 50% protein, and C4H8O2N was the biomass elemental composition (Leak and Dalton, 1986).

[7] = tested on: Methylosinus trichosporium OB3b expressing pMMO; conditions: 50 μM each of VC, t-DCE, and TCE; 110 hours of growth on methane; Lee et al., 2006; cited from earlier work
[8] = Abiotic loss of chlorinated ethenes from serum vials with sterile NMS medium; assay type: physicochemical; conditions: 40 μM each in 5 ml sterile NMS medium; 216 hours
Procedure: Growth and degradation of chlorinated solvents. The growth of Methylocystis strain SB2 and degradation of the mixture of TCE, t-DCE, and VC were measured in three different conditions: methane, acetate, and acetate with acetylene (a selective inhibitor of both MMOs) (Prior and Dalton, 1985). The method used previously by Lee et al. (2006) and Yoon and Semrau (2008) was slightly modified for these assays. For all three growth conditions, Methylocystis strain SB2 was initially grown on methane to the mid-exponential phase (OD600 nm of 0.3-0.4). This cell suspension was flushed with compressed air as described above to remove residual methane and diluted to OD600<0.03 in 50 ml of fresh media in 250 ml Erlenmeyer flask. For growth on methane, methane was added to the headspace to an air:methane ratio of 1:1 and the cells were grown back to an OD600 of ca. 0.06. After the flask was flushed with compressed air as described earlier, five milliliter aliquots were transferred to serum vials specially fabricated to measure growth at OD600 over time as described earlier (Lee et al., 2006). Teflon-coated butyl-rubber stoppers (National Scientific Co., Duluth, Ga.) were used to seal the serum vials. After the serum vials were securely sealed, 5 ml of the air in headspace was replaced with 5 ml of methane to ensure sufficient methane for growth. For growth on acetate, 1 mM of sodium acetate (Im et al., 2010) instead of methane was added to the diluted cell suspension in 250-ml Erlenmeyer flasks. […] The growth of Methylocystis strain SB2 was monitored until the cell growth was no longer observed. The initial and final concentration of TCE, t-DCE, and VC were measured with HP5890 Series II gas chromatograph equipped with a 75 m DB-624 column with 0.53 mm internal diameter (J&W Scientific Co.). […] TCE and t-DCE were detected with an electron capture detector (ECD) with injector, oven, and detector temperatures set to 160, 120, and 250° C., respectively. VC was detected with a flame ionization detector (FID) with injector, oven, and detector temperatures set to 140, 120, and 250° C., respectively.

Methylocystis strain SB2 [9] = assay: Nitrogen source utilization by strain SB2 with methane as carbon source; assay type: cell-based; conditions: methane as the carbon source
Procedure: Many nitrogen sources were tested with methane as the carbon source: nitrate (as potassium nitrate), ammonia (as ammonium chloride), L-alanine, L-serine, L-isoluecine, L-proline, L-methionine, L-glutamine, L-asparagine, L-lysine, L-glycine, L-histidine, and L-arginine. […] The presence of nifH was confirmed using PCR using specific primers for nifH (Auman, et al., 2001; Zehr & McReynolds, 1989).

Methylocystis strain SB2 [10] = assay: Degradation of chlorinated ethenes by Methylocystis strain SB2 grown on methane or acetate; assay type: cell-based; conditions: SB2 grown on CH3COOH + C2H2 (acetylene); 40 μM each of TCE, t-DCE, and VC; 216 hours
Procedure: Saturated stock solutions were prepared for TCE and t-DCE as described by Chang and Alvarez-Cohen (1996). Hamilton 1700 series gas-tight syringes (Hamilton, Reno, Nev.) were used to take aliquots from the stock solutions. Gaseous compounds, i.e., methane and VC, were transferred to gas bags before use. Aliquots were taken with Precision Lok gas-tight syringes purchased from Precision Sampling Corp (Baton Rouge, La.). The amount of chlorinated solvents to be added was calculated considering dimensionless Henry's constants at 30° C. […]
The method used previously by Lee et al. (2006) and Yoon and Semrau (2008) was slightly modified for these assays. […] The growth of Methylocystis strain SB2 was monitored until the cell growth was no longer observed. The initial and final concentration of TCE, t-DCE, and VC were measured with HP5890 Series II gas chromatograph equipped with a 75 m DB-624 column with 0.53 mm internal diameter (J&W Scientific Co.). […] TCE and t-DCE were detected with an electron capture detector (ECD) with injector, oven, and detector temperatures set to 160, 120, and 250° C., respectively. VC was detected with a flame ionization detector (FID) with injector, oven, and detector temperatures set to 140, 120, and 250° C., respectively.

Methylocystis strain SB2 [11] = assay: Growth of Methylocystis strain SB2 in the presence of chlorinated ethenes; assay type: cell-based; conditions: grown on methane in the absence of chlorinated ethenes
Procedure: Methylocystis strain SB2 was initially grown on methane (1:1 methane-to-air ratio) to the mid-exponential phase (OD600 of 0.3-0.4 as measured using a Spectronic 20 spectrometer (Milton Roy Company, USA)). […] The cultures were then diluted to an OD600 of 0.06 with fresh NMS medium. Five ml aliquots were added to serum vials specially fabricated to measure growth as OD600 over time and respective growth substrates were added. For addition of methane, 5 ml of headspace was replaced with >99.99% methane after sealing the vials for a final concentration of 15% v/v in the headspace. […] Growth was monitored by measuring absorbance at 600 nm (OD600).
For all three growth conditions, Methylocystis strain SB2 was initially grown on methane to the mid-exponential phase (OD600 nm of 0.3-0.4). This cell suspension was flushed with compressed air as described above to remove residual methane and diluted to OD600<0.03 in 50 ml of fresh media in 250 ml Erlenmeyer flask. For growth on methane, methane was added to the headspace to an air:methane ratio of 1:1 and the cells were grown back to an OD600 of ca. 0.06. […] The growth of Methylocystis strain SB2 was monitored until the cell growth was no longer observed.

ClCCl [DCM, dichloromethane]
degradation by strain SB2 grown on ethanol (Methylocystis strain SB2 [1]): not | degradation by strain SB2 grown on methane (Methylocystis strain SB2 [1]): not | Henry's constants [2]: 0.125

CC(=O)O [acetate]
max OD410 (Methylocystis strain H2s): ~0.23 | max OD410 (Methylocystis heyeri H2T): 0.14 | max OD600 (Methylocapsa aurea KYGT): 0.3 | OD600 reached (final / max OD600) (Methylocystis strain SB2 [3]): 0.26 | growth on substrate as carbon source (Methylocystis strain SB2 [3]): grew | max OD410 [4]: 0.09 | Efficiency of carbon conversion [5]: 40.1 (±2.43) % | Growth yield [5]: 20.5 (±1.24) g cell dry weight ▪(mol substrate^−1 | Efficiency of carbon conversion (Methylocystis strain SB2 [6]): 22.1 (±0.2) % | Growth yield (Methylocystis strain SB2 [6]): 12.0 (±0.13) g cell dry weight ▪(mol substrate^−1

C=CCl [VC, vinyl chloride]
degradation by strain SB2 grown on ethanol (Methylocystis strain SB2 [1]): degraded | degradation by strain SB2 grown on methane (Methylocystis strain SB2 [1]): degraded | Henry's constants [2]: 1.262 | % degraded [7]: 97% | Abiotic loss, % (range of duplicate samples) [8]: 1.8%

O=C(O)[C@@H]1CCCN1 [L-proline]
utilization as nitrogen source (Methylocystis strain SB2 [9]): able to utilize

CO [methanol]
growth on substrate as carbon source (Methylocystis strain SB2 [3]): no growth

ClC(Cl)Cl [CF, chloroform]
degradation by strain SB2 grown on ethanol (Methylocystis strain SB2 [1]): not | degradation by strain SB2 grown on methane (Methylocystis strain SB2 [1]): degraded | Henry's constants [2]: 0.189

ClC=C(Cl)Cl [TCE, trichloroethylene]
% Chlorinated ethene degraded (range of duplicate samples) (Methylocystis strain SB2 [10]): 3.3% | degradation by strain SB2 grown on ethanol (Methylocystis strain SB2 [1]): degraded | degradation by strain SB2 grown on methane (Methylocystis strain SB2 [1]): degraded | Henry's constants [2]: 0.458 | % degraded [7]: 35% | Abiotic loss, % (range of duplicate samples) [8]: 5.2%

NC(=O)CC[C@H](N)C(=O)O [L-glutamine]
utilization as nitrogen source (Methylocystis strain SB2 [9]): able to utilize

N [ammonium]
utilization as nitrogen source (Methylocystis strain SB2 [9]): able to utilize

C [methane]
specific growth rate (Methylocystis strain SB2 [11]): 0.057 h⁻¹ | OD600 reached (final / max OD600) (Methylocystis strain SB2 [3]): 0.83 | growth rate (Methylocystis strain SB2 [3]): 0.052 ± 0.004 h⁻¹ | Efficiency of carbon conversion [5]: 13.2 (±0.698) % | Growth yield [5]: 3.59 (±0.104) g cell dry weight ▪(mol substrate^−1 | Efficiency of carbon conversion (Methylocystis strain SB2 [6]): 12.3 (±0.5) % | Growth yield (Methylocystis strain SB2 [6]): 3.13 (±0.12) g cell dry weight ▪(mol substrate^−1

CCO [ethanol]
OD600 reached (final / max OD600) (Methylocystis strain SB2 [3]): 0.45 | growth rate (Methylocystis strain SB2 [3]): 0.022 ± 0.002 h⁻¹ | growth on substrate as carbon source (Methylocystis strain SB2 [3]): grew

O=[N+]([O-])O [nitrate]
utilization as nitrogen source (Methylocystis strain SB2 [9]): able to utilize

Cl/C=C/Cl [t-DCE, trans-dichloroethylene]
degradation by strain SB2 grown on ethanol (Methylocystis strain SB2 [1]): degraded | degradation by strain SB2 grown on methane (Methylocystis strain SB2 [1]): degraded | Henry's constants [2]: 0.474 | % degraded [7]: 98% | Abiotic loss, % (range of duplicate samples) [8]: 0 (0) %

CC(Cl)(Cl)Cl [1,1,1-TCA, 1,1,1-trichloroethane]
degradation by strain SB2 grown on ethanol (Methylocystis strain SB2 [1]): degraded | degradation by strain SB2 grown on methane (Methylocystis strain SB2 [1]): degraded | Henry's constants [2]: 0.804

CC[C@H](C)[C@H](N)C(=O)O [L-isoleucine]
utilization as nitrogen source (Methylocystis strain SB2 [9]): able to utilize
